What was measured:
Format in all cases: cell-based
EGFR L858R (Ba/F3 cells) [1] = molecular target: T1, EGFR L858R (Ba/F3 cells) (Homo sapiens, UniProt P00533, L858R); assay: Inhibitor activity on EGFR-dependent cell growth (CellTiter-Glo, 72 h), Ba/F3 EGFR L858R; conditions: read-out: BaF3 L858R IC50
T1 construct: expressed in transfected cells; host or cells: Ba/F3 (murine pro-B cells), retroviral transduction, puromycin selection, IL3-independent pool
Outline: (§1)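 Ba/F3, retrovirally transduced, puromycin-selected, grown without IL3; cells/well: L858R 400, L858R/C797S 600, exon 19del 800, FQEA 800. Cpds from 10 mM DMSO stock, 3-fold ×10 dilution, 120 nL per well; 72 h. CTG readout; IC50 via Hill equation.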

[2] = molecular target: T2, EGFR exon 19del (Ba/F3 cells) (Homo sapiens, UniProt P00533); assay: Inhibitor activity on EGFR-dependent cell growth (CellTiter-Glo, 72 h), Ba/F3 EGFR exon 19del; conditions: Ba/F3 EGFR exon 19del cell growth, read-out: BaF3 Del19 IC50
T2 sequence (P00533 with tags, fused parts or gaps DEL746-750): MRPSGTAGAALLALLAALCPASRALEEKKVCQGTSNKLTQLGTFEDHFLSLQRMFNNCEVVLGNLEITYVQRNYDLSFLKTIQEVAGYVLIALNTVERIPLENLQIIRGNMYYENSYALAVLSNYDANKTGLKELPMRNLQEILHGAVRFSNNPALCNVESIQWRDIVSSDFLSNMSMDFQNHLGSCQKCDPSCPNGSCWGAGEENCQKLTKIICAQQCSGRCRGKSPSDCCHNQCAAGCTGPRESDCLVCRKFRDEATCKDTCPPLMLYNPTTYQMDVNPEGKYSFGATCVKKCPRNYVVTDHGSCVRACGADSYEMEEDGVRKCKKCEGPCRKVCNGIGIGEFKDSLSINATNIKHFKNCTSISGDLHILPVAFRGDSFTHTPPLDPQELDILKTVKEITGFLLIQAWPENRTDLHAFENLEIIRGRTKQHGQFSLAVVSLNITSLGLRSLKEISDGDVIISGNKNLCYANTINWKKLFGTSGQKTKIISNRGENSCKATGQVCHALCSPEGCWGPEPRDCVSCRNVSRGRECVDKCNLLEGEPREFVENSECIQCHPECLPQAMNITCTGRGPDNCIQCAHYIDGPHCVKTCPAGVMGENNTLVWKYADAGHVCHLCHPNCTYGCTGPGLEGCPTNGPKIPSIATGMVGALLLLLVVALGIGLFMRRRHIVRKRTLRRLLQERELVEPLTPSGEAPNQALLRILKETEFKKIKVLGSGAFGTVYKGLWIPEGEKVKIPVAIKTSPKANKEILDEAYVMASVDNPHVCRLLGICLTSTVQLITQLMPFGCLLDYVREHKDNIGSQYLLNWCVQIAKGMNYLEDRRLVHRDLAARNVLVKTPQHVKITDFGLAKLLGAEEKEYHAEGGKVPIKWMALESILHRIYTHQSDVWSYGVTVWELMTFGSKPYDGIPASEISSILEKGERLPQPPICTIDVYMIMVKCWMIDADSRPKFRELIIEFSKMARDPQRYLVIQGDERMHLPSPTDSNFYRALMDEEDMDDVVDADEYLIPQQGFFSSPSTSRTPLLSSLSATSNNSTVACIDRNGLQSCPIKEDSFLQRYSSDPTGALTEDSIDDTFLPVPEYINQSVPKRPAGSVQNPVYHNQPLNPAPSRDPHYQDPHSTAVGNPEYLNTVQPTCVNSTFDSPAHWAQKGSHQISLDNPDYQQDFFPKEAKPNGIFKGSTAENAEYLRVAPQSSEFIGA
Outline: as §1

[3] = molecular target: T3, EGFR L858R/C797S (Ba/F3 cells) (Homo sapiens, UniProt P00533, C797S/L858R); assay: Inhibitor activity on EGFR-dependent cell growth (CellTiter-Glo, 72 h), Ba/F3 EGFR L858R/C797S; conditions: read-out: BaF3 L858R/C797S IC50
T3 construct: expressed in transfected cells; host or cells: Ba/F3 (murine pro-B cells), retroviral transduction, puromycin selection, IL3-independent pool
T3 sequence (P00533 25-1210 C797S/L858R): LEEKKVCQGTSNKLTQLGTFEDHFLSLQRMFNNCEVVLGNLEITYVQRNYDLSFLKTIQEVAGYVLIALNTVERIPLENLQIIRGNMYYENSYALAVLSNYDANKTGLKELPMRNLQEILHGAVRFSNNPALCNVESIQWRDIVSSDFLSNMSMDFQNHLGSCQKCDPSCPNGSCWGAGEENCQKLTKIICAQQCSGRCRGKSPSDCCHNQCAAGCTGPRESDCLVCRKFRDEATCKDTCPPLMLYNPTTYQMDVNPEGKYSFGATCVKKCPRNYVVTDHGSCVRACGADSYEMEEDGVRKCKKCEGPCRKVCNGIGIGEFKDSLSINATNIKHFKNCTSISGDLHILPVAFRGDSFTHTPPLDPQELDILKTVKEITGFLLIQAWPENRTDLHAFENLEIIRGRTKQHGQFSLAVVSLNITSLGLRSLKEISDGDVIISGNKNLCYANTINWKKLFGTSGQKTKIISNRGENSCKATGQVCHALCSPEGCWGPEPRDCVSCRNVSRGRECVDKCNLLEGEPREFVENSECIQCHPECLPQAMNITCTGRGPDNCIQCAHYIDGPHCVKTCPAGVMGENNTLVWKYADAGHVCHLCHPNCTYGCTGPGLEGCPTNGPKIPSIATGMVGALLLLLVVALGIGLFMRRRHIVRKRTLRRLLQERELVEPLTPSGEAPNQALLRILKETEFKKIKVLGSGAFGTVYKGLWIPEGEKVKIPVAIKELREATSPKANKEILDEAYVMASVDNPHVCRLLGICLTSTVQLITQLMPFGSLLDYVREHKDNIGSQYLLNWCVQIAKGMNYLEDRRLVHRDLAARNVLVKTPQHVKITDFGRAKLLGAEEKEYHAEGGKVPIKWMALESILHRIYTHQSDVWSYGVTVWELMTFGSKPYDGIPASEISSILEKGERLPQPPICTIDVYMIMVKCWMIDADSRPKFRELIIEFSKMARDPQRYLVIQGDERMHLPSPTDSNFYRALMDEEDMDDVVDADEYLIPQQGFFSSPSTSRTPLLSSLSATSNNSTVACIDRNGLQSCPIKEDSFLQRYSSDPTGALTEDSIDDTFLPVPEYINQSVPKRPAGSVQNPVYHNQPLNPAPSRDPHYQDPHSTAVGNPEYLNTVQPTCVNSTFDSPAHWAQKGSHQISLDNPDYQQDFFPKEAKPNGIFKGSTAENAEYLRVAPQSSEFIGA
Text: Example A. Inhibitor Activity on EGFR-Dependent Cell Growth
Cell lines are generated by transducing Ba/F3 cells with retroviruses containing vectors with EGFR WT, EGFR L858R, EGFR exon 19del, EGFR L858R/C797S, EGFR exon 20 NPG Ins D770_N771, EGFR exon 20 ASV Ins V769_D770, EGFR exon 20 SVD Ins D770_N771, or EGFR exon 20 FQEA Ins A763_V764 genes and a puromycin selection marker. Transduced cells are selected with puromycin for 7 days and are then be transferred into culture media without Interleukin 3 (IL3). EGFR WT cells are maintained with supplemental EGF. Surviving cells are confirmed to express EGFR by Western blot and maintained as a pool. The IC50 date were included in Table 6 and Table 7.
(§2) 1.1 Cells are harvested from flask into cell culture medium and the cell number counted.
1.2 Cells are diluted with culture medium to the desired density and 40 μL of cell suspension is added into each well of 384-well cell culture plate and the seeding density is 800 (FQEA, exon 19del), 600 (WT, NPG, L858R/C797S), or 400 (ASV, SVD, L858R) cells/well.
(§3) 2 Compound Preparation and Treatment
(§4) 2.1 Test compounds are dissolved to 10 mM in a DMSO stock solution. 45 μL of stock solution is transferred to a 384 polypropylene plate (pp-plate). Perform 3-fold, 10-point dilution via transferring 15 μL compound into 30 μL DMSO using a TECAN (EVO200) liquid handler.
(§5) 2.2 Spin plates at room temperature at 1,000 RPM for 1 minute.
2.3 Transfer 120 nL of diluted compound from compound source plate into the cell plate.
2.4 After compound treatment for 72 hours, perform CTG detection for compound treatment plates as described in “Detection” section.
3.1 Plates are removed from incubators and equilibrated at room temperature for 15 minutes.
3.2 Thaw the CellTiter Glo reagents and allow to equilibrate to room temperature before the experiment.
3.3 Add 40 μL of CellTiter-Glo reagent into each well (at 1:1 to culture medium). Then place the plates at room temperature for 30 min followed by reading on EnVision.
4.1 Inhibition activity is calculated following the formula below:
% Inhibition=100×(LumHC−LumSample)/(LumHC−LumLC) • where HC is obtained from cells treated with 0.1% DMSO only; and LC is obtained from culture medium only.
4.2 2. Calculate the IC50 by fitting the Curve using Xlfit (v5.3.1.3), equation 201.
Y=Bottom+(Top−Bottom)/(1+10^((Log IC50−X)*HillSlope))

EGFR L858R (Ba/F3 cells) [4] = molecular target: T1, EGFR L858R (Ba/F3 cells); assay: Inhibitor activity on EGFR phosphorylation (pEGFR AlphaLISA, 2 h), Ba/F3 EGFR L858R
Text: (§6) Example B. Inhibitor Activity on EGFR phosphorylation (pEGFR)
(§7) EGFR mutant Ba/F3 cells were generated by transduction with retrovirus containing vectors expressing EGFR L858R, EGFR exon 19del, EGFR L858R/C797S, EGFR exon 20 NPG Ins D770_N771, EGFR exon 20 ASV Ins V769_D770, or EGFR exon 20 SVD Ins D770_N771 genes along with a puromycin selection marker. Transduced cells are selected with puromycin for 7 days and are then be transferred into culture media without Interleukin 3 (IL3). Surviving cells are confirmed to express EGFR by Western blot and maintained as a pool. CUTO14 cells were obtained from Dr. Robert C. Doebele at the University of Colorado. The IC50 date are included in Table 6 and Table 7.
as §2
(§8) 1.2 Cells are diluted with culture medium to the desired density and 40 μL of cell suspension is added into each well of 384-well cell culture plate and the seeding density is 50K cells/well (Ba/F3) or 12.5K cells/well (CUTO14).
as §3, §4, §5
(§9) 2.3 Transfer 5 nL of diluted compound from compound source plate into the cell plate.
(§10) 2.4 After compound treatment for 2 hours, perform pEGFR detection by AlphaLISA for compound treatment plates as described in “Detection” section.
(§11) 3 Detection by pEGFR AlphaLISA (Perkin-Elmer)
(§12) 3.1 Plates are removed from incubators and equilibrated at room temperature for 10 minutes, and media was removed
(§13) 3.2 10 μL of lysis buffer is added and plates shaken at 600 rpm for 1 hr.
(§14) 3.3 Prepare acceptor mix just before use and dispense 5 μL of acceptor mix to all the wells. Shake 350 rpm for Ihr in the dark
(§15) 3.4 Prepare donor mix under low light conditions prior to use. Dispense 5 μL of donor mix to all the wells. Mix well on the shaker, seal and wrap in aluminum foil and incubate 1.5 hrs at room temperature in the dark
(§16) 3.5 Transfer 18.5 μL mixture to OptiPlate 384, and read using an Envision. The IC50 date were included in Table 6 and Table 7.

[5] = molecular target: T2, EGFR exon 19del (Ba/F3 cells); assay: Inhibitor activity on EGFR phosphorylation (pEGFR AlphaLISA, 2 h), Ba/F3 EGFR exon 19del; conditions: read-out: Del19 IC50 (pEGFR)
Text: as §6, §7, §2, §8, §3, §4, §5, §9, §10, §11, §12, §13, §14, §15, §16

[6] = molecular target: T3, EGFR L858R/C797S (Ba/F3 cells); assay: Inhibitor activity on EGFR phosphorylation (pEGFR AlphaLISA, 2 h), Ba/F3 EGFR L858R/C797S
Text: as §6, §7, §2, §8, §3, §4, §5, §9, §10, §11, §12, §13, §14, §15, §16

EGFR WT (Ba/F3 cells) = molecular target: T4, EGFR WT (Ba/F3 cells) (Homo sapiens, UniProt P00533); assay: Inhibitor activity on EGFR-dependent cell growth (CellTiter-Glo, 72 h), Ba/F3 EGFR WT; conditions: read-out: BaF3 WT IC50
T4 construct: expressed in transfected cells; host or cells: Ba/F3 (murine pro-B cells), retroviral transduction, puromycin selection, maintained with EGF
T4 sequence (P00533 25-1210): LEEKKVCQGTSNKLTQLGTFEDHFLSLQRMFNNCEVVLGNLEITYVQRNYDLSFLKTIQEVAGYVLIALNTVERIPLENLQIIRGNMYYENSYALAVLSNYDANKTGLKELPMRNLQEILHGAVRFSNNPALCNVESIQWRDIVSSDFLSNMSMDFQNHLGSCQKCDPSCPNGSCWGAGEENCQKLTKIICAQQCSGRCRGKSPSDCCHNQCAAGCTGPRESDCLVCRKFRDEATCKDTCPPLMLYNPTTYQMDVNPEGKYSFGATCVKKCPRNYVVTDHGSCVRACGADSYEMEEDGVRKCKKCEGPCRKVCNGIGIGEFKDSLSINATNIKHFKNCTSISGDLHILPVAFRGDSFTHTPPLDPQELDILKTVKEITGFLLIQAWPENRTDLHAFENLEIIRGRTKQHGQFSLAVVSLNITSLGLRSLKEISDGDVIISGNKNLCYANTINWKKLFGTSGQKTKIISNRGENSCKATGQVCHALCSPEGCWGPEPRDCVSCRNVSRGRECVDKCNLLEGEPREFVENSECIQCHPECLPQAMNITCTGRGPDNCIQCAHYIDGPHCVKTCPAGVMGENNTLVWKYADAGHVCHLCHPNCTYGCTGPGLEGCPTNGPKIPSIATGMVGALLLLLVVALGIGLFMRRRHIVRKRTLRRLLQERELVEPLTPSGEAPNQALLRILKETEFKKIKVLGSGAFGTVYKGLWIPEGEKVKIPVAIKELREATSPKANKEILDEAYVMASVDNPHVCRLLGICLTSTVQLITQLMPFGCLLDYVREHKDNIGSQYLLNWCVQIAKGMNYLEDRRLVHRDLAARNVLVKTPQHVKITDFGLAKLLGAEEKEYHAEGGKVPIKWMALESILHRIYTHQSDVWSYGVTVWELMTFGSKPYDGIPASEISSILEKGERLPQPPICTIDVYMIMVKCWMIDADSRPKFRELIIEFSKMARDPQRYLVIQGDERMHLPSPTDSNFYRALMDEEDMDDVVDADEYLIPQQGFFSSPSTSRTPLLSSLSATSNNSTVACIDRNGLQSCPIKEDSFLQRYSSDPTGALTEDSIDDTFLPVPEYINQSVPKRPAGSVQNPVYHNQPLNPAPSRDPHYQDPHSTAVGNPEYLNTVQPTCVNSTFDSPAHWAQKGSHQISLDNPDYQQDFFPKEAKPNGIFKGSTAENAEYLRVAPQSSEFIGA
Outline: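 This growth assay used Ba/F3 cells that depend on wild-type EGFR and are kept in EGF without IL3. Compounds were made up as 10 mM DMSO stocks and diluted 3-fold over 10 points. 120 nL went onto 600 cells/well. After 72 hours, 40 μL CellTiter-Glo was added and luminescence read on EnVision after 30 min.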

[7] = molecular target: T5, EGFR exon 20 ASV Ins V769_D770 (Ba/F3 cells) (Homo sapiens, UniProt P00533, INS769ASV); assay: Inhibitor activity on EGFR-dependent cell growth (CellTiter-Glo, 72 h), Ba/F3 EGFR exon 20 ASV Ins; conditions: read-out: BaF3 ASV IC50
T5 construct: expressed in transfected cells; host or cells: Ba/F3 (murine pro-B cells), retroviral transduction, puromycin selection, IL3-independent pool
Outline: (§17)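 IC50s derive from a sigmoidal dose–response fit of CellTiter-Glo signal. The signal was normalised between […]-treated cells and cell-free medium. Ba/F3 mutant-EGFR cells, seeded at 400–800/well depending on the line, had 72 h of exposure to a 10-point, 3-fold compound series.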

[8] = molecular target: T6, EGFR exon 20 SVD Ins D770_N771 (Ba/F3 cells) (Homo sapiens, UniProt P00533, INS770SVD); assay: Inhibitor activity on EGFR-dependent cell growth (CellTiter-Glo, 72 h), Ba/F3 EGFR exon 20 SVD Ins; conditions: read-out: BaF3 SVD IC50
T6 construct: expressed in transfected cells; host or cells: Ba/F3 (murine pro-B cells), retroviral transduction, puromycin selection, IL3-independent pool
Outline: as §17

[9] = molecular target: T7, EGFR exon 20 FQEA Ins A763_V764 (Ba/F3 cells) (Homo sapiens, UniProt P00533, INS763FQEA); assay: Inhibitor activity on EGFR-dependent cell growth (CellTiter-Glo, 72 h), Ba/F3 EGFR exon 20 FQEA Ins; conditions: read-out: BaF3 FQEA IC50
T7 construct: expressed in transfected cells; host or cells: Ba/F3 (murine pro-B cells), retroviral transduction, puromycin selection, IL3-independent pool
Outline: as §1

[10] = molecular target: T8, EGFR exon 20 NPG Ins D770_N771 (Ba/F3 cells) (Homo sapiens, UniProt P00533, INS770NPG); assay: Inhibitor activity on EGFR-dependent cell growth (CellTiter-Glo, 72 h), Ba/F3 EGFR exon 20 NPG Ins; conditions: read-out: BaF3 NPG IC50
T8 construct: expressed in transfected cells; host or cells: Ba/F3 (murine pro-B cells), retroviral transduction, puromycin selection, IL3-independent pool
Outline: as §17

EGFR (CUTO14 cells) = EGFR (CUTO14 cells) (Homo sapiens, UniProt P00533); assay: Inhibitor activity on EGFR phosphorylation (pEGFR AlphaLISA, 2 h), CUTO14 cells
Text: as §6, §7, §2, §8, §3, §4, §5, §9, §10, §11, §12, §13, §14, §15, §16

T1 sequence (P00533 25-1210 L858R): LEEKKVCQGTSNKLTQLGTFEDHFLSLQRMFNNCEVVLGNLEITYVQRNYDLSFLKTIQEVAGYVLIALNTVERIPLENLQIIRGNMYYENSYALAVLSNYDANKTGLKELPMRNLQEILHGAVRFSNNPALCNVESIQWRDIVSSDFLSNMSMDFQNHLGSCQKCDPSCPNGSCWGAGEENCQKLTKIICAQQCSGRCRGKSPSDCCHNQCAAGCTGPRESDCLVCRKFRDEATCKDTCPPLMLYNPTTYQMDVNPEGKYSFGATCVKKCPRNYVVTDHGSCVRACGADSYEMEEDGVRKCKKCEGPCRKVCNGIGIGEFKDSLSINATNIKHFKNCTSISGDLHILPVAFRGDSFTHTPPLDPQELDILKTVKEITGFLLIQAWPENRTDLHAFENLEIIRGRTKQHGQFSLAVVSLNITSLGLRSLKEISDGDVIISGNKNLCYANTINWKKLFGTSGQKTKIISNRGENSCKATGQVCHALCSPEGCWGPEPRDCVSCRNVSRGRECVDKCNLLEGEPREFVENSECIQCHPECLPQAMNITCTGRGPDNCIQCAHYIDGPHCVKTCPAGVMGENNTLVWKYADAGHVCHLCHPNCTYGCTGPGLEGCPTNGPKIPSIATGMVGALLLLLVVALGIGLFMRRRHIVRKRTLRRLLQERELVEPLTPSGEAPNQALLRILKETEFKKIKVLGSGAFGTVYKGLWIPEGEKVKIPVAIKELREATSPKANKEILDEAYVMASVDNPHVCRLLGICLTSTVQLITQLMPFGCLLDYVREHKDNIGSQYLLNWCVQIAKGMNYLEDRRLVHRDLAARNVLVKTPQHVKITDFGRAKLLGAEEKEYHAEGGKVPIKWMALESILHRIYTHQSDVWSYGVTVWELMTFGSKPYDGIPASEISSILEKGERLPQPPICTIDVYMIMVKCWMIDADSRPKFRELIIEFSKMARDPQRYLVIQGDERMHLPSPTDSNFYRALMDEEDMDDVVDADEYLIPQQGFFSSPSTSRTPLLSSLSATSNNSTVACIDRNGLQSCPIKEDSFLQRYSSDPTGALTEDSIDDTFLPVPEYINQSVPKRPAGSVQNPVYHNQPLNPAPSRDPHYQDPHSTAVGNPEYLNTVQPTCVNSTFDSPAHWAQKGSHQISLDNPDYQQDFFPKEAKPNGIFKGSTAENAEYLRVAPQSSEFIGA

Row | Compound | IC50 (EGFR L858R (Ba/F3 cells) [1]) | IC50 [2] | IC50 [3] | IC50 (EGFR L858R (Ba/F3 cells) [4]) | IC50 [5] | IC50 [6] | IC50 (EGFR WT (Ba/F3 cells)) | IC50 [7] | IC50 [8] | IC50 [9] | IC50 [10] | IC50 (EGFR (CUTO14 cells))
1 | COc1c(Cl)cccc1Nc1c(-c2ccncc2F)[nH]c2c1C(=O)NC[C@H]2CC(F)F [Compound 820, (7R)-3-[(3-chloro-2-methoxyphenyl)amino]-7-(2,2-difluoroethyl)-2-(3-fluoropyridin-4-yl)-1H,5H,6H,7H-pyrrolo[3,2-c]pyridin-4-one] | < 100 nM | < 100 nM | < 100 nM | < 100 nM | < 100 nM | < 100 nM | > 1000 nM | 100 to 1000 nM | 100 to 1000 nM | 100 to 1000 nM | – | –
2 | COc1c(Cl)cccc1Nc1c(-c2ccncc2F)[nH]c2c(C[C@@H]3COCCO3)c[nH]c(=O)c12 [compound 657] | < 100 nM | < 100 nM | < 100 nM | – | – | < 100 nM | 100 to 1000 nM | < 100 nM | < 100 nM | – | < 100 nM | < 100 nM
3 | COc1ncc2nccc(-c3[nH]c4c(c3Nc3cccc(F)c3C)C(=O)NCC4)c2n1 [Compound 794, 3-[(3-fluoro-2-methylphenyl)amino]-2-[2-methoxypyrido[3,2-d]pyrimidin-8-yl]-1H,5H,6H,7H-pyrrolo[3,2-c]pyridin-4-one] | < 100 nM | < 100 nM | < 100 nM | < 100 nM | < 100 nM | < 100 nM | 100 to 1000 nM | < 100 nM | < 100 nM | < 100 nM | – | –

Other lines, results leading:

Row | IC50 (EGFR L858R (Ba/F3 cells) [1]) | IC50 [2] | IC50 [3] | IC50 (EGFR L858R (Ba/F3 cells) [4]) | IC50 [5] | IC50 [6] | IC50 (EGFR WT (Ba/F3 cells)) | IC50 [7] | IC50 [8] | IC50 [9] | IC50 [10] | IC50 (EGFR (CUTO14 cells)) | Compound
4 | < 100 nM | < 100 nM | < 100 nM | < 100 nM | < 100 nM | < 100 nM | > 1000 nM | 100 to 1000 nM | 100 to 1000 nM | 100 to 1000 nM | – | – | COc1c(Cl)cccc1Nc1c(-c2ccncc2F)[nH]c2c1C(=O)NC[C@@H]2CC(F)F [Compound 819, (7S)-3-[(3-chloro-2-methoxyphenyl)amino]-7-(2,2-difluoroethyl)-2-(3-fluoropyridin-4-yl)-1H,5H,6H,7H-pyrrolo[3,2-c]pyridin-4-one]
5 | < 100 nM | < 100 nM | < 100 nM | < 100 nM | < 100 nM | < 100 nM | 100 to 1000 nM | < 100 nM | < 100 nM | < 100 nM | – | – | COc1c(F)cccc1Nc1c(-c2ccnc3ccc(C)nc23)[nH]c2c1C(=O)NCC2 [Compound 809, 3-[(3-fluoro-2-methoxyphenyl)amino]-2-(6-methyl-1,5-naphthyridin-4-yl)-1H,5H,6H,7H-pyrrolo[3,2-c]pyridin-4-one]

From patent US20240101576A1, “HETEROCYCLIC INHIBITORS OF EGFR AND/OR HER2, FOR USE IN THE TREATMENT OF CANCER” (Scorpion Therapeutics, Inc., priority 2020, published 2024)
